The numbers were not newly measured in patent publication US6312728A, “Sustained release pharmaceutical preparation” (Cascade Development, Inc., priority 1999, dated 2001), which cites them from elsewhere.

Like-named read-outs stand apart in the source and are kept apart here.

The conditions of series [1]: patients.
The conditions of series [2]: intravenous administration.
For series [3] the following is noted: in vivo.

What is called half-life is how long it takes for the measured level to halve. Turning to `O=C1NC(=O)C(c2ccccc2)(c2ccccc2)N1` [phenytoin, 5,5-diphenyl-2,4-imidazolidinedione], the solubility in water result is given as “poor solubility in water”. In addition, the “bioavailability following oral administration” value in series [1] was “great variations in bioavailability”. The solubility in water entry (listed as free-phenytoin) was “practically insoluble in water”. For the same compound, in series [2], the serious adverse effects entry was “serious adverse effects, including cardiac arrhythmias and hypotensioni”. In series [3], the half-life is over 6 h.

Consider `O=C1NC(=O)C(c2ccccc2)(c2ccccc2)N1` [phenytoin sodium], for which the solubility in water result is on record as “much more soluble”.
